Two compounds from patent US8883826B2, “Alkynyl derivatives as modulators of metabotropic glutamate receptors” (Addex Pharma SA, priority 2004, dated 2014) can be followed below.

“Also recorded” adds a separate entry of the source. Where only a bound is given, the exact number is not on record here.

In one series the target is T1, mGluR5 (Rattus norvegicus, UniProt P31424).
T1 construct: tissue Charles River Laboratories; host or cells: rat brain cortex membranes (Sprague-Dawley)
The series can be described thus: mGluR5 binding assay ([3H]-MPEP radioligand competition). Conditions: competition with 3 nM [3H]-MPEP, rat brain cortical membranes, 1 h at 4 °C; mean of at least three independent experiments in duplicate. An outline of the steps: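 Rat cortical membranes (50 μg) were incubated 1 h at 4 °C with 3 nM [3H]-MPEP and compound (0.003 nM-30 μM, 8 points) in HEPES buffer pH 7.4 with Mg2+, Ca2+ and NaCl. 30 μM MPEP defined non-specific binding, and bound label was counted after filtration. IC50 came from non-linear regression, as the mean of ≥3 experiments run in duplicate.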
A general note: Loss of bound radioactivity is the signal in a displacement assay; it reports binding, not function.

The next series deals with Male Sprague-Dawley rats. The series can be described thus: Vogel conflict drinking model of anxiety. It is filed as in vivo, rat. Conditions: n=9-10/group. The source says:
Vogel Conflict Drinking Model of Anxiety in Rats
The Vogel conflict drinking model involves the conflict between thirst and receiving mild shocks for drinking water (punished drinking). Water-deprived rats are placed in a chamber and are periodically shocked for drinking water. The shocks suppress drinking and anxiolytics reverse this shock-induced suppression of drinking. The Vogel conflict drinking model was first proposed as a screening model for anxiolytics (Vogel, J. R. et al., Psychopharmacologia (Berl.), 21:1-7 (1971)) and is widely accepted as a robust model for testing the anxiolytic-like properties of compounds (Millan, M. J. and Brocco M., European Journal of Pharmacology, 463:67-96 (2003)).
Such compounds may be useful in the treatment of anxiety and related disorders. […]
The effect of compounds on drinking in the Vogel conflict drinking model in rats was tested. […] The number of punished drinks was counted automatically by the computer interface. […]
Statistical analyses were performed using GraphPad PRISM version 4.01 statistical software (GraphPad, San Diego, Calif., USA). Data were analyzed using one-way analysis of variance (ANOVA) followed by Bonferroni multiple comparisons. […]

The next series relates to Male C57BL6/j mice. The series can be described thus: Marble burying model of anxiety. It is filed as in vivo, mouse. To be noted: 30 mg/kg po, 60 minutes prior to test, n=10/group, t=3.686, p<0.01. The text has this:
Marble Burying Model of Anxiety
Marble burying behavior in mice is reduced by compounds which are efficacious anxiolytics in humans. Thus, marble burying in mice has been used as a model for the prediction of anxiolytic-like effects of compounds (Millan, M. J. et al., Neuropharmacology, 42:677-684 (2002)).
Selective negative allosteric modulators (allosteric antagonists) of the metabotropic glutamate receptor subtype 5 (mGluR5) have been shown previously to reduce marble burying in mice (Spooren, W. P. et al., Journal of Pharmacology and Experimental Therapeutics, 295:1267-1275 (2000)). […] Such compounds may be useful in the treatment of anxiety and related disorders.
The present studies were performed in accordance with the animal care and use policies of Addex Pharmaceuticals and the EEC directives on the protection of animals used for experimental and other scientific purposes (86/609/EEC and subsequent revisions). […]
The effect of compounds on marble burying in mice was tested. […] After removal of the mice from the test cages, the number of marbles buried was counted. […]
Statistical analyses were performed using GraphPad PRISM version 4.01 statistical software (GraphPad, San Diego, Calif., USA). Data were analyzed using one-way analysis of variance (ANOVA) followed by Bonferroni-corrected multiple comparisons, or t tests if only 2 groups were present. […]

T1 sequence (P31424 21-1203): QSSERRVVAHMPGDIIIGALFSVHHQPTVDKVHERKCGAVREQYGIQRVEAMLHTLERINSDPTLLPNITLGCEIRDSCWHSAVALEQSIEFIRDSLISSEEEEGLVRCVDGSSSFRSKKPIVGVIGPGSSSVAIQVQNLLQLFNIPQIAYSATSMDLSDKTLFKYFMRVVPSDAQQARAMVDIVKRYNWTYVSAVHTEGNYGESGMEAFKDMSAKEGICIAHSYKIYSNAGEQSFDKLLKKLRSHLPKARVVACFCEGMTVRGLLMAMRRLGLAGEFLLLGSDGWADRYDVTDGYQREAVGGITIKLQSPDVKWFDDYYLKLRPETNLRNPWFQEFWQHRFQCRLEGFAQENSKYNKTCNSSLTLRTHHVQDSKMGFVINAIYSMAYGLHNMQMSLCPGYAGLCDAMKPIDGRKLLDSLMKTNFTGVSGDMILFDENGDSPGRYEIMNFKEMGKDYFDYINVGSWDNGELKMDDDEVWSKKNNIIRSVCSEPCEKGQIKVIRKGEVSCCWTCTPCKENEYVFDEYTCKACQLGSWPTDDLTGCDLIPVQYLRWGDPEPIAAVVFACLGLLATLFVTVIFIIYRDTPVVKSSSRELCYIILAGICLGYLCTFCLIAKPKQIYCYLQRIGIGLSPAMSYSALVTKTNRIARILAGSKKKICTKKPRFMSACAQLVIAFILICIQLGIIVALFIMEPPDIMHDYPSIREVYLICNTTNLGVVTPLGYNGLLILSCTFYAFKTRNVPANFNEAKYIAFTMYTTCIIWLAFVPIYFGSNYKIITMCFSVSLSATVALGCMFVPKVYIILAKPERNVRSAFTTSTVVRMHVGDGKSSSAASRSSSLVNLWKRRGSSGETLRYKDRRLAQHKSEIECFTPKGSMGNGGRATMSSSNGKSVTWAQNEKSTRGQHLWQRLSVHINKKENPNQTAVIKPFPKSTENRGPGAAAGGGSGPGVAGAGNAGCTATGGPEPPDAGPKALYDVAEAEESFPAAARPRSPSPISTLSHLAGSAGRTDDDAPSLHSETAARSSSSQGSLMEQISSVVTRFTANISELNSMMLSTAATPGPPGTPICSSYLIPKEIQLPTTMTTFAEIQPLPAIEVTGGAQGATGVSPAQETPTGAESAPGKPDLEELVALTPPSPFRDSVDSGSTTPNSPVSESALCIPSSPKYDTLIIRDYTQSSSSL

For `Cl.FCc1cccc(C#CCCn2nc3ccccc3n2)n1` [Example 130, 2-(4-(6-(Fluoromethyl)pyridin-2-yl)but-3-ynyl)-2H-benzo[d][1,2,3]triazole hydrochloride], the melting point (commonly the temperature, or range, at which the solid turns liquid) was 172.5 to 173.5 °C. Besides, at mGluR5, the IC50 (usually the concentration needed to halve the response being measured) was below 50 nM. Besides, in the series with Male Sprague-Dawley rats (30 mg/kg po, t(1, 17)=2.593, hydrochloride), the “punished drinking in the Vogel conflict drinking test (vs vehicle)” value is “significantly increases punished drinking; also recorded: took significantly more punished licks than vehicle injected controls”.

For `FCc1cccc(C#CCCc2cn3cccc(Cl)c3n2)n1` [Example 256, 8-Chloro-2-(4-(6-(fluoromethyl)pyridin-2-yl)but-3-ynyl)-imidazo[1,2-a]pyridine], the melting point lay within 73 to 74.5 °C. The compound also had an IC50 at mGluR5 below 50 nM. For the same compound, the “marble burying in mice (number of marbles buried vs vehicle)” value in the series on Male C57BL6/j mice is listed as “significantly attenuates marble burying; also recorded: buried fewer marbles than vehicle-treated mice”. Further, in the series on Male Sprague-Dawley rats (10 mg/kg po, t=3.585, p<0.01), the “punished drinking in the Vogel conflict drinking test (vs vehicle)” value is recorded as “significantly increases punished drinking; also recorded: accepted significantly more shocks than vehicle-treated rats”.
